Results: patent US8524701B2, “Use of a specific cyclic amine derivative or the pharmaceutically acceptable salts thereof for the treatment or prevention of heart failure” (Boehringer Ingelheim Pharma GmbH & Co. KG, priority 2002, dated 2013)
Where two headings read alike, the source gives them in different places.

Columns and labels:
[1] = system: hyperpolarisation activated, cAMP-modulated cation current channels (HCN) in cardiac conductive tissue; conditions: cited from earlier work
[2] = system: heart rate; assay type: in vivo; conditions: rat
Experimental: A further similar experiment was performed in order to compare the visual side-effect of cilobradine and zatebradine in conditions where the drugs are pharmacologically effective in reducing heart rate. The aim of this experiment was to compare the visual side-effect of both drugs in another experimental animal model, namely on the retinal system of the rat. Furthermore, the aim of this experiment was also to compare the visual side-effect of both drugs in acute and in chronic (over two weeks) drug treatment conditions.
The ERG measurements were made 30 minutes after injection of the drug. The measured heart rate frequency was:
The ERG measurement was made 30 minutes after injection of the drug. The measured heart rate frequency was:
(§1) The ERG measurement was made after the 2 weeks treatment.

[3] = system: heart rate; assay type: in vivo, cat; conditions: maximum effect, FIG. 1
Source text: This selection of the dose is based on the result shown in FIG. 1, wherein the reduction of heart rate is plotted against the applied dose of the drug (open circles: zatebradine; filled circles: cilobradine). […] Therefore, by choosing these doses, it can already be assumed that the pharmacological effect on heart rate of cilobradine is better than the pharmacological effect of zatebradine.

[4] = system: retinal system of the rat; assay: Electroretinogram (ERG) responses from anesthetized pigmented rats as a function of stimulus frequency; assay type: in vivo; conditions: for effect on the ERG (visual side-effect): 30 minutes after injection
Source text: The aim of this experiment was to compare the visual side-effect of both drugs in another experimental animal model, namely on the retinal system of the rat. Furthermore, the aim of this experiment was also to compare the visual side-effect of both drugs in acute and in chronic (over two weeks) drug treatment conditions.
The principle of this experiment is again the same as the principle of the experiment performed by Gargini et al. and published in Vision research, vol.
The results of the experiment are visualized by plotting the measurement of the first amplitude of the Fourier transform of the ERG as a function of the applied stimulus frequency (oscillating light stimulus of high luminance and contrast).
The ERG measurements were made 30 minutes after injection of the drug.
The ERG measurement was made 30 minutes after injection of the drug.
as §1

[5] = system: cat eyes; assay: Electroretinogram (ERG) response to sinusoidally modulated luminances recorded from cat eyes; assay type: in vivo
Experimental: The content of these references, and more particularly the experimental parts described therein, are herein incorporated by reference.
These studies were based on a measurement of the electroretinogram (ERG) responses recorded from cat eyes, in normal conditions and after administration of zatebradine.
In the following experiment, the same experiment was performed using cilobradine, and the results compared to the results obtained with zatebradine.

[6] = system: cat eyes; conditions: cited from earlier work
[7] = system: patients with heart failure; conditions: Shinke et al. 1997; cited from earlier work

COc1ccc(CCN2CCC[C@H](CN3CCc4cc(OC)c(OC)cc4CC3=O)C2)cc1OC [cilobradine, (+)-3-[(N-(2-(3,4-dimethoxy-phenyl)-ethyl)-piperidin-3-(S)-yl)-methyl]-7,8-dimethoxy-1,3,4,5-tetrahydro-2H-3-benzazepin-2-one]
block of HCN channels responsible for the current If [1]: selectively block | measured heart rate frequency ([2]; acute treatment 0.3 mg/kg, 30 minutes after injection, control 400, FIG. 4): 364 beats per min. | measured heart rate frequency ([2]; acute treatment 1 mg/kg, 30 minutes after injection, control 400, FIG. 4): 316 beats per min. | measured heart rate frequency ([2]; acute treatment 3 mg/kg, 30 minutes after injection, control 400, FIG. 4): 270 beats per min. | measured heart rate frequency ([2]; chronic treatment 2 weeks, FIG. 7, table row prints 1 mg/kg, text says double dose of 3 mg/kg per day, control 350): 285 beats per min. | measured heart rate frequency ([2]; chronic treatment, single dose 1 mg/kg per day during 2 weeks, control 400, FIG. 6): 260 beats per min. | reduction of the heart rate ([3]; dose of 0.75 mg/kg body weight): about 75% | visual side-effects ([4]; acute as well as chronic (2 weeks) treatment, FIGS. 4 and 6): without visual side-effects | effect on the ERG (visual side-effect) ([4]; acute treatment 0.3, 1 and 3 mg/kg, FIG. 4): no effect on the ERG can be detected | ERG response (visual side-effect) ([5]; after injection of 0.75 mg/kg body weight, FIG. 3): no visual effect can be detected

COc1ccc(CCN(C)CCCN2CCc3cc(OC)c(OC)cc3CC2=O)cc1OC [zatebradine]
block of HCN channels responsible for the current If [1]: selectively block | measured heart rate frequency ([2]; acute treatment, single dose 3 mg/kg, 30 minutes after injection, control 428, FIG. 5): 333 beats per min. | ERG response amplitude ([6]; after administration of zatebradine, Archives Italiennes de Biologie 1999, Vision Research 1999): reduces the amplitude of the response to stimuli of frequency above 1 Hz | cut-off introduced in the band-pass of the ERG response ([6]; after intravenous injection or oral administration, decreased response amplitude in the range 2 to 15 Hertz): about 2 Hertz | reduction of the heart rate ([3]; dose of 2.5 mg/kg body weight): about 44% | cardiac efficiency [7]: improved cardiac efficiency | effect on the ERG (visual side-effect) ([4]; acute treatment, single dose 3 mg/kg, FIG. 5): a reduction of the amplitude of the response to stimuli of frequency above 1 Hz and a shift of the corresponding phase lags is observed | ERG response (visual side-effect) ([5]; 15 minutes after 2.5 mg/kg body weight i.v. injection, FIG. 2): reduces the amplitude of the response to stimuli of frequency above 1 Hz and shift the corresponding phase lags | ERG response (visual side-effect) ([5]; 5 hours after injection of 2.5 mg/kg body weight, FIG. 2): visual response is back to normal
